In PubChem BioAssay AID1963962 (Molecular Pharmacology Branch, DTP, NCI, 2024):

Test system: 967376-340-R-J2-PDC multicell spheroid viability
Experiment: Anticancer human tumor 967376-340-R-J2-PDC patient-derived colon adenocarcinoma cell line growth inhibition [PI3K]
Conditions: for IC50: curve of first compound; for viability, T/C: stronger effect = lower value
Procedure, shortened: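 Agents were dosed from a top concentration near clinical Cmax (otherwise 10 microM) in half-log decrements, alone or combined with PI3K inhibitors. The spheroids contain tumor cells plus endothelial (HUVEC) and MSC stroma; viability is measured.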
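Also: spheroids exposed to agents for 7 days before read-out.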
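For viability, T/C in this document: luminescence used as surrogate of cell viability.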

SMILES: Cn1cnc2c(F)c(Nc3ccc(Br)cc3Cl)c(C(=O)NOCCO)cc21 + COc1c(OCCCN2CCOCC2)ccc2c3n(c(=NC(=O)c4cnc(N)nc4)nc12)CCN3
- IC50 (second compound 0.00316 µM): 2.85 µM
- IC50 (second compound 0.01 µM): 2.08 µM
- IC50 (second compound 0.0316 µM): 1.01 µM
- IC50 (second compound 0.1 µM): 0.332 µM
- IC50 (second compound 0.316 µM): < 0.00949 µM
- IC50 (second compound 1 µM): < 0.00949 µM
- viability, T/C (second compound 0.00316 µM, first compound 0.00949 µM): 85.7%
- viability, T/C (second compound 0.00316 µM, first compound 0.03 µM): 79.2%
- viability, T/C (second compound 0.00316 µM, first compound 0.0949 µM): 87.5%
- viability, T/C (second compound 0.00316 µM, first compound 0.3 µM): 67.9%
- viability, T/C (second compound 0.00316 µM, first compound 0.949 µM): 80.5%
- viability, T/C (second compound 0.00316 µM, first compound 3 µM): 48.7%
- viability, T/C (second compound 0.01 µM, first compound 0.00949 µM): 106%
- viability, T/C (second compound 0.01 µM, first compound 0.03 µM): 86.6%
- viability, T/C (second compound 0.01 µM, first compound 0.0949 µM): 66.9%
- viability, T/C (second compound 0.01 µM, first compound 0.3 µM): 79.9%
- viability, T/C (second compound 0.01 µM, first compound 0.949 µM): 87%
- viability, T/C (second compound 0.01 µM, first compound 3 µM): 33.4%
- viability, T/C (second compound 0.0316 µM, first compound 0.00949 µM): 80.1%
- viability, T/C (second compound 0.0316 µM, first compound 0.03 µM): 61.2%
- viability, T/C (second compound 0.0316 µM, first compound 0.0949 µM): 51.7%
- viability, T/C (second compound 0.0316 µM, first compound 0.3 µM): 53.2%
- viability, T/C (second compound 0.0316 µM, first compound 0.949 µM): 57.6%
- viability, T/C (second compound 0.0316 µM, first compound 3 µM): 15.3%
- viability, T/C (second compound 0.1 µM, first compound 0.00949 µM): 49.2%
- viability, T/C (second compound 0.1 µM, first compound 0.03 µM): 59.9%
- viability, T/C (second compound 0.1 µM, first compound 0.0949 µM): 49.6%
- viability, T/C (second compound 0.1 µM, first compound 0.3 µM): 53.1%
- viability, T/C (second compound 0.1 µM, first compound 0.949 µM): 19.8%
- viability, T/C (second compound 0.1 µM, first compound 3 µM): 1.95%
- viability, T/C (second compound 0.316 µM, first compound 0.00949 µM): 28.5%
- viability, T/C (second compound 0.316 µM, first compound 0.03 µM): 65.1%
- viability, T/C (second compound 0.316 µM, first compound 0.0949 µM): 46.9%
- viability, T/C (second compound 0.316 µM, first compound 0.3 µM): 23.9%
- viability, T/C (second compound 0.316 µM, first compound 0.949 µM): 1.63%
- viability, T/C (second compound 0.316 µM, first compound 3 µM): 1.2%
- viability, T/C (second compound 1 µM, first compound 0.00949 µM): 44.2%
- viability, T/C (second compound 1 µM, first compound 0.03 µM): 25.5%
- viability, T/C (second compound 1 µM, first compound 0.0949 µM): 32.3%
- viability, T/C (second compound 1 µM, first compound 0.3 µM): 16.7%
- viability, T/C (second compound 1 µM, first compound 0.949 µM): 1.19%
- viability, T/C (second compound 1 µM, first compound 3 µM): 1.28%
